Legend:
Assay type in all cases: in vivo, Sprague Dawley rats
[1] = system: rats with bilateral 6-OHDA lesions of the NTS; experiment: Epinephrine and norepinephrine levels by enzyme immunoassay in rats with 6-OHDA lesions
Protocol: (§1) The third set of experiments (intervention-treatment and control-treatment groups) was to infuse the ganglionic blocker (hexamethonium (Sigma), 25 mg/kg, iv) via the femoral vein at the time point of 10 minutes after NTS lesion to record BP and HR in trend (n=6 in each group) and the rats respectively were sacrificed at the time point (0, 3, 6 and 12 hours) for analyzing the parameters as discussed in the second set of experiments.
All blood samples were collected into micro-tubes and placed immediately into to an ice bath. The samples, then, were centrifuged at 10000 rpm for 20 minutes at 4° C. Aliquots of plasma were removed and stored at −80° C. until assayed for content of epinephrine and norepinephrine within four weeks utilizing enzyme immunoassay for the high-sensitive quantitative determination by Labor Diagnostika Nord-Medicrop Inc.

[2] = system: rats with bilateral 6-OHDA lesions of the NTS; experiment: Echocardiography in rats with 6-OHDA lesions
Protocol: After the first set of the rat model was established, the second set of experiments intended to determine some time points for analysis. Rats were anesthetized with pentobarbital (50 mg/kg, ip) before NTS lesion. After surgery (lesion of the NTS), the wounds were closed and the rats were removed from the stereotaxic frame for further observation. Each rat was placed in a small cage and woken within 30 minutes for free activity. The rat were respectively sacrificed (intervention and control group, n=6 in each group) at different time point (0, 3 and 6 hours) for analyzing histopathology and biochemistry from blood, brain, heart and lung. Before sacrificing, echocardiography was performed to exanimate left ventricular (LV) wall thickness and cardiac function.
as §1
Rats were immobilized and shaved on the chest for echocardiographic examinations using commercially available equipment (Vivid 7, GE Ultrasound, Horten, Norway) equipped with 10-MHz phased array transducers. All the records were stored digitally as two-dimensional cine loops and analyzed with customized dedicated research software (Echo PAC, GE Ultrasound, Horten, Norway). Two-dimensionally guided M-mode recordings were obtained from the parasternal short-axis view at a depth of 2 cm at the level of the papillary muscles. M-Mode tracing were recorded at a speed of 200 mm/s. The measurements were made using the method of the American Society of Echocardiography and the parameters were measured digitally on the M-mode tracing and averaged from 5 consecutive cardiac cycles.

[3] = system: rats with bilateral 6-OHDA lesions of the NTS; experiment: Heart histopathology and immunohistochemistry (H&E, troponin T, BNP, connexin 43) in rats with 6-OHDA lesions
Protocol: as §1
(§2) For hematoxylin and eosin staining, the rat brain, heart, and lungs were excised immediately after blood sampling. They were rinsed with saline, free from blood or fatty tissue, lightly blotted with filter paper, and then were placed in 10% formalin for five days and blocked, embedded in paraffin, cut in 4 μm sections, and stained with hematoxylin and eosin.
(§3) Immunohistochemical analysis (troponin T and brain natriuretic peptide in heart tissue, neutrophil cell in lung tissue, and connexin 43 assays in the lung and heart tissues) was performed on the sections after the paraffin was melted in an oven at 70° C. for one hour. The sections were deparaffinized, microwaved in citric buffer (10 mmol/L, pH 6.0), blocked in 3% goat serum, and incubated with anti-cardiac troponin T antibody (1:200; Abeam), anti-myosin VIIa antibody (1:200; Abeam), anti-brain natriuretic peptide polyclonal antibody (1:1000; Thermo Fisher Scientific Inc.), anti-neutrophil elastase antibody (1:400; Abeam), and anti-connexin 43/GJA1 antibody (1:200; Abcam) overnight at 4° C. Next, the sections were incubated with biotinylated secondary antibodies (1:200; Vector Laboratories, Burlingame, Calif., USA) for one hour and in AB complex (1:100) for 30 minutes at room temperature. The sections were visualized with a DAB substrate kit (Vector Laboratories) and counterstained with hematoxylin. The sections were then photographed with a microscope mounted with a charge-coupled device camera.

[4] = system: rats with bilateral 6-OHDA lesions of the NTS; experiment: BP and HR recording and survival in rats with 6-OHDA lesions of the NTS (rat model mimicking fatal EV 71 encephalitis); details: for survival time after NTS lesion: n=6, 6-OHDA rats died within 7 hours
Source text: (§4) Three sets of experiments were designed according to the three specific aims mentioned above. The first set of experiments was to establish a rat model by micro-injecting 6-hydroxydopamin (6-OHDA) into NTS leading to acute fulminating hypertension and pulmonary hemorrhagic edema. We recorded the blood pressure (BP) and heart rate (HR) in trend. Two groups of rats (n=6 in each group) were studied: 1) an intervention group in which 6-OHDA (Sigma, […]) dissolved in vehicle (0.8% ascorbic acid in saline) was injected into NTS bilaterally; and 2) a control group that received injections of equal volumes of vehicle alone. Each group of rats was anesthetized with urethane (1 g/kg, i.p.) and connected to oscillator circuits for BP and HR recording via […]. For microinjections into the NTS, the rats were anesthetized and placed in a stereotaxic frame; then the dorsal surface of the medulla was exposed. A glass cannula was filled with L-glutamate (0.154 mmol/60 n1) to functionally identify the NTS.
as §1

[5] = system: control rats with NTS microinjected with vehicle; experiment: BP and HR recording in control-treatment group (vehicle injected into NTS, then hexamethonium); details: no 6-OHDA lesion; hexamethonium 25 mg/kg iv
Source text: as §4, with “NTS. […]” for “NTS.”

[6] = system: rats with bilateral 6-OHDA lesions of the NTS; experiment: Pulmonary edema index and gross lung specimens in rats with 6-OHDA lesions; details: n=6 per group
Protocol: as §1
After the blood-sampled rats were sacrificed, the chest each of the rats was opened to remove the lung and the heart, and then the skull was opened for NTS tissue. To estimate the liquid accumulation in the lungs, both lungs were weighted, then dried in an oven at 80° C. for two days and weighted as dry lung weight. The total weight/body multiplies by 100 and wet-to-dry lung weight ratio were calculated for indicating the degree of pulmonary edema.

[7] = system: rats with bilateral 6-OHDA lesions of the NTS; experiment: Lung histopathology and immunohistochemistry (H&E, PMN, connexin 43) in rats with 6-OHDA lesions; details: n=6 per group
Protocol: as §1, §2, §3

C[N+](C)(C)CCCCCC[N+](C)(C)C [hexamethonium]
level of epinephrine at 6 hours, 6-OHDA vs 6-OHDA+Hexamethonium ([1]; 6 hours): no significant differences | level of norepinephrine at 6 hours, 6-OHDA vs 6-OHDA+Hexamethonium ([1]; 6 hours): no significant differences | acute high rise of epinephrine serum level post 6-OHDA lesions ([1]; within 3 hours after hexamethonium treatment, FIG. 1D, n=6 per group): significantly lowered | acute high rise of norepinephrine serum level post 6-OHDA lesions ([1]; within 3 hours after hexamethonium treatment, FIG. 1E, n=6 per group): significantly lowered | acute increase in fraction shortening ([2]; 3 hours): attenuated or reversed | decrease in the LV internal dimension in diastole and systole ([2]; 3 hours and 6 hours): reversed or attenuated | acute decrease in cardiac output after 6-OHDA lesions ([2]; 3 hours and 6 hours, FIG. 2E): prevented | acute increase in ejection fraction ([2]; 3 hours, FIG. 2F): attenuated or reversed | acute increase in LV wall thickness ([2]; 3 hours, FIGS. 2G and 2H): attenuated or reversed | increase of irregular wavy fibers with increased eosinophilic staining of the cytoplasm and contraction bands necrosis in heart (H&E) ([3]; 3 hours and 6 hours, FIG. 3A, n=6 per group): prevented | increased BNP staining in the cytoplasm (heart) ([3]; 3 hours and 6 hours, FIG. 3C, n=6 per group): reduced | increased and strong expressions of connexin 43 in heart muscle ([3]; 3 hours and 6 hours, FIG. 3D, n=6 per group): reduced | increased expression of cardiac troponin T ([3]; 6 hours, FIGS. 3B and 3E, n=4 per group): reduced | HR at 3 hours ([4]; 25 mg/kg iv 10 minutes after 6-OHDA lesion, 3 hours): no significant reduction in HR | HR immediately after hexamethonium ([4]; 25 mg/kg iv 10 minutes after 6-OHDA lesion, immediately): a reduction in HR | acute hypertension induced by 6-OHDA lesions ([4]; hexamethonium 25 mg/kg iv 10 minutes after NTS lesion, FIG. 1B): reversed | acute high rise in mean blood pressure (MBP) caused by 6-OHDA lesions ([4]; hexamethonium 25 mg/kg iv 10 minutes after NTS lesion, FIG. 1C, n=6 per group): significantly reversed | survival time after NTS lesion ([4]; hexamethonium 25 mg/kg iv 10 minutes after NTS lesion): at least 14 hours | survival time after NTS lesion ([4]; hexamethonium 25 mg/kg iv 10 minutes after NTS lesion, listed as Hexamethonium): more than 14 hours | labored breathing ([4]; hexamethonium 25 mg/kg iv 10 minutes after NTS lesion, up to 14 hours post NTS lesion): did not exhibit significantly labored breathing until 14 hours | HR in control-treatment group [5]: no associated significant change in HR | mean blood pressure in control-treatment group [5]: significantly decreased | mild and severe lung congestion (gross lungs) ([6]; 3 hours and 6 hours, FIG. 4A): prevented | increased wet-to-dry lung weight ratio (W/D) ([6]; 6 hours, FIG. 4B): reversed | increased total lung/body weight (BW) ([6]; 6 hours, FIG. 4C): reversed | increased infiltrates of red blood cells and formation of hyaline membrane in lung (H&E) ([7]; 3 hours and 6 hours, FIG. 5A): prevented | increased expressions of connexin 43 in lung ([7]; 3 hours and 6 hours, FIG. 5C): attenuated | increased infiltrates of PMN in lung ([7]; 6 hours, FIG. 5B): reduced

— patent US20150094376A1, “Hexamethonium Reverses the Lethal Cardiopulmonary Damages in a Rat Model of Brain Stem Lesions Mimicking Fatal Enterovirus 71 Encephalitis” (Kaohsiung Veterans General Hospital, priority 2013, published 2015)
